Values quoted from earlier work, collected in patent US20030069214A1, “Process for preparing saponin compounds” (priority 2001, published 2003).

Tests used:
normal cells = normal cells in vitro; Bioorg. Med. Chem. Lett., 7, 633, 1997
[1] = tested on: broad spectrum of malignant tumor cells; conditions: Bioorg. Med. Chem. Lett., 7, 633, 1997

## COc1ccc(C(=O)O[C@H]2[C@H](O[C@@H]3[C@@H](OC(C)=O)[C@H](O[C@H]4C[C@H]5[C@@H]6CC=C7C[C@@H](O)CC[C@]7(C)[C@H]6CC[C@]5(C)[C@@]4(O)[C@H](C)C(=O)CCC(C)C)OC[C@@H]3O)OC[C@@H](O)[C@@H]2O)cc1 [OSW-1]
Normal cells
  toxicity to normal cells: little toxicity
[1]
  toxicity against malignant tumor cells: highly toxic
